# According to ChEMBL document CHEMBL5352410, “Discovery of novel selenium-containing azole derivatives as antifungal agents by exploiting the hydrophobic cleft of CYP51” (Eur J Med Chem, 2022):
# Columns and labels:
# [1] = test system: Candida albicans; test: Antifungal activity against FCZ-resistant Candida albicans 632 by CLSI based broth microdilution method; format: functional
# [2] = test system: Candida albicans; test: Antifungal activity against FCZ-resistant Candida albicans 901 by CLSI based broth microdilution method; format: functional
# [3] = test system: Candida albicans; test: Antifungal activity against FCZ-resistant Candida albicans 904 by CLSI based broth microdilution method; format: functional
# [4] = test system: Candida albicans; test: Fungicidal activity against Candida albicans; format: functional
# [5] = test system: Candida albicans; test: Fungicidal activity against Candida albicans sc5314; format: functional
# [6] = test system: Candida albicans; test: Fungicidal activity against FCZ-resistant Candida albicans CaR; format: functional
# [7] = test system: Candida albicans; test: Fungicidal activity against FCZ-resistant Candida albicans 17#; format: functional
# [8] = test system: Candida albicans; test: Fungicidal activity against FCZ-resistant Candida albicans 901; format: functional
# [9] = target: T1, Lanosterol 14-alpha demethylase (Candida albicans (strain SC5314 / ATCC MYA-2876) (Yeast), UniProt P10613); test: Inhibition of CYP51 of Candida albicans ATCC SC5314 assessed as decrease in ergosterol level by measuring residual activity at 2 ug/ml incubated for 16 hrs by GC-MS analysis (reference value: 98.3 %); conditions: at 2 µg/mL
# [10] = target: T1, Lanosterol 14-alpha demethylase; test: Inhibition of CYP51 of Candida albicans ATCC SC5314 assessed as decrease in ergosterol level by measuring residual activity at 4 ug/ml incubated for 16 hrs by GC-MS analysis (reference value: 98.3 %); conditions: at 4 µg/mL
# [11] = target: T1, Lanosterol 14-alpha demethylase; test: Inhibition of CYP51 of Candida albicans ATCC SC5314 assessed as decrease in ergosterol level by measuring residual activity at 8 ug/ml incubated for 16 hrs by GC-MS analysis (reference value: 98.3 %); conditions: at 8 µg/mL
# [12] = target: T1, Lanosterol 14-alpha demethylase; test: Inhibition of CYP51 of Candida albicans ATCC SC5314 assessed as increase in obtusifoliol level at 1 ug/ml incubated for 16 hrs by GC-MS analysis (reference value: 0 %); parameters: scale not given: the % may be the effect or the level left; conditions: at 1 µg/mL
# [13] = target: T1, Lanosterol 14-alpha demethylase; test: Inhibition of CYP51 of Candida albicans ATCC SC5314 assessed as increase in obtusifoliol level at 2 ug/ml incubated for 16 hrs by GC-MS analysis (reference value: 0 %); parameters: scale not given: the % may be the effect or the level left; conditions: at 2 µg/mL
# [14] = target: T1, Lanosterol 14-alpha demethylase; test: Inhibition of CYP51 of Candida albicans ATCC SC5314 assessed as increase in obtusifoliol level at 8 ug/ml incubated for 16 hrs by GC-MS analysis (reference value: 0 %); parameters: scale not given: the % may be the effect or the level left; conditions: at 8 µg/mL
# [15] = target: T1, Lanosterol 14-alpha demethylase; test: Inhibition of CYP51 of Candida albicans ATCC SC5314 assessed as increase in lanosterol level at 1 ug/ml incubated for 16 hrs by GC-MS analysis (reference value: 1.7 %); parameters: scale not given: the % may be the effect or the level left; conditions: at 1 µg/mL
# [16] = target: T1, Lanosterol 14-alpha demethylase; test: Inhibition of CYP51 of Candida albicans ATCC SC5314 assessed as increase in lanosterol level at 2 ug/ml incubated for 16 hrs by GC-MS analysis (reference value: 1.7 %); parameters: scale not given: the % may be the effect or the level left; conditions: at 2 µg/mL
# [17] = target: T1, Lanosterol 14-alpha demethylase; test: Inhibition of CYP51 of Candida albicans ATCC SC5314 assessed as increase in lanosterol level at 4 ug/ml incubated for 16 hrs by GC-MS analysis (reference value: 1.7 %); parameters: scale not given: the % may be the effect or the level left; conditions: at 4 µg/mL
# [18] = target: T1, Lanosterol 14-alpha demethylase; test: Inhibition of CYP51 of Candida albicans ATCC SC5314 assessed as increase in eburicol level at 1 ug/ml incubated for 16 hrs by GC-MS analysis (reference value: 0 %); parameters: scale not given: the % may be the effect or the level left; conditions: at 1 µg/mL
# [19] = target: T1, Lanosterol 14-alpha demethylase; test: Inhibition of CYP51 of Candida albicans ATCC SC5314 assessed as increase in eburicol level at 2 ug/ml incubated for 16 hrs by GC-MS analysis (reference value: 0 %); parameters: scale not given: the % may be the effect or the level left; conditions: at 2 µg/mL
# [20] = target: T1, Lanosterol 14-alpha demethylase; test: Inhibition of CYP51 of Candida albicans ATCC SC5314 assessed as increase in eburicol level at 4 ug/ml incubated for 16 hrs by GC-MS analysis (reference value: 0 %); parameters: scale not given: the % may be the effect or the level left; conditions: at 4 µg/mL
# [21] = target: T1, Lanosterol 14-alpha demethylase; test: Inhibition of CYP51 of Candida albicans ATCC SC5314 assessed as increase in eburicol level at 8 ug/ml incubated for 16 hrs by GC-MS analysis (reference value: 0 %); parameters: scale not given: the % may be the effect or the level left; conditions: at 8 µg/mL
# [22] = test system: Candida albicans; test: Antibiofilm activity against Candida albicans SC5314 assessed as sessile minimum inhibitory concentration measured after 1.5 hrs by XTT assay; format: functional
# [23] = test system: Candida albicans; test: Antibiofilm activity against Candida albicans SC5314 assessed as sessile minimum inhibitory concentration measured after 3 hrs by XTT assay; format: functional
# [24] = test system: Candida albicans; test: Antibiofilm activity against Candida albicans SC5314 assessed as sessile minimum inhibitory concentration measured after 6 hrs by XTT assay; format: functional
# [25] = test system: Candida albicans; test: Antibiofilm activity against Candida albicans SC5314 assessed as sessile minimum inhibitory concentration measured after 24 hrs by XTT assay; format: functional
# [26] = test system: Candida albicans; test: Antibiofilm activity against Candida albicans CPCC400616 assessed as sessile minimum inhibitory concentration measured after 3 hrs by XTT assay; format: functional
# [27] = test system: Candida albicans; test: Antibiofilm activity against Candida albicans CPCC400616 assessed as sessile minimum inhibitory concentration measured after 6 hrs by XTT assay; format: functional
# [28] = Cytotoxicity against human HL-60 cells by MTT assay; format: toxicity, cell-based
# [29] = Cytotoxicity against human PC-3 cells by MTT assay; format: toxicity, cell-based
# [30] = Metabolic stability in mouse liver microsome assessed as clearance; format: ADME; conditions: liver microsomes, read-out: CLH
# [31] = Acute toxicity in water diet-fed Kunming mouse assessed as change in body weight at 500 mg/kg, IG measured for 7 days; format: organism-based; conditions: in vivo, po, 168 h, time 7 day
# [32] = Acute toxicity in water diet-fed Kunming mouse administered intragastrically measured for 7 days; conditions: in vivo, po, route ig, time 7 day
# [33] = Subacute toxicity in water diet-fed Kunming mouse assessed as adverse reactions at 100 to 200 mg/kg, IG measured for 48 hrs; format: organism-based; conditions: in vivo, po, dose 100-200 mg/kg
# [34] = Subacute toxicity in water diet-fed Kunming mouse assessed as lesions in liver at 100 to 200 mg/kg, IG measured after 8 to 15 days; format: organism-based; conditions: in vivo, po, dose lower 100 mg/kg, time lower 8 day, dose upper 200 mg/kg, time upper 15 day
# [35] = Subacute toxicity in water diet-fed Kunming mouse assessed as lesions in kidney at 100 to 200 mg/kg, IG measured after 8 to 15 days; format: organism-based; conditions: in vivo, po, dose lower 100 mg/kg, time lower 8 day, dose upper 200 mg/kg, time upper 15 day
# [36] = Subacute toxicity in water diet-fed Kunming mouse assessed as effect on kidney at 100 to 200 mg/kg, IG measured after 7 to 14 days by microscopic analysis; format: organism-based; conditions: in vivo, po, dose lower 100 mg/kg, time lower 7 day, dose upper 200 mg/kg, time upper 14 day
# [37] = Subacute toxicity in water diet-fed Kunming mouse assessed as liver edema at 100 to 200 mg/kg, IG measured after 7 to 14 days by microscopic analysis; format: organism-based; conditions: in vivo, po, dose lower 100 mg/kg, time lower 7 day, dose upper 200 mg/kg, time upper 14 day
# [38] = Subacute toxicity in water diet-fed Kunming mouse assessed as focal necrosis in liver at 100 to 200 mg/kg, IG measured after 7 to 14 days by microscopic analysis; format: organism-based; conditions: in vivo, po, dose lower 100 mg/kg, time lower 7 day, dose upper 200 mg/kg, time upper 14 day
# T1 sequence (P10613 whole entry): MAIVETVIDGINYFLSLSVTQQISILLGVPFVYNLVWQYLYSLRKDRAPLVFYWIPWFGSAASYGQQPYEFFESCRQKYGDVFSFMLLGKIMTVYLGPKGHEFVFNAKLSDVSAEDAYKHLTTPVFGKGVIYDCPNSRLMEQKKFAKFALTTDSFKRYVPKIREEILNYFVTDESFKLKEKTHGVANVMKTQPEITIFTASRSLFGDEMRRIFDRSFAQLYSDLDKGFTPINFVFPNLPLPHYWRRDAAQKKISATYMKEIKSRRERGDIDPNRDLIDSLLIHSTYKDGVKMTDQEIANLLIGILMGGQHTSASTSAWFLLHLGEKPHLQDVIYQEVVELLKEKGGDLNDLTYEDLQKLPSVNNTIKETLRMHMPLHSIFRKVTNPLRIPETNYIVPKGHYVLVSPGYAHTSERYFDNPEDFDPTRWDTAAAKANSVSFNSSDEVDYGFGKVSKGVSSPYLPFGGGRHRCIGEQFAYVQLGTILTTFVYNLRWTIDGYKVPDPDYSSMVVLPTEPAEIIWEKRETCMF
smiles,measurement,setting,value
Clc1ccc(C(Cn2ccnc2)[Se][Se]C(Cn2ccnc2)c2ccc(Cl)cc2Cl)c(Cl)c1 (centres undefined),MIC,[1],4 µg/mL
same,MIC,[2],2 µg/mL
same,MIC,[3],4 µg/mL
same,MFC,[4],16 µg/mL
same,MFC,[5],8 µg/mL
same,MFC,[6],16 µg/mL
same,MFC,[7],> 64 µg/mL
same,MFC,[8],2 µg/mL
same,Activity,[9],2.4%
same,Activity,[10],2.7%
same,Activity,[11],2.2%
same,Activity,[12],6.4%
same,Activity,[13],12.2%
same,Activity,[14],19.8%
same,Activity,[15],8.4%
same,Activity,[16],22.6%
same,Activity,[17],14.2%
same,Activity,[18],60.8%
same,Activity,[19],62.8%
same,Activity,[20],69.5%
same,Activity,[21],61.3%
same,MIC50,[22],0.5 µg/mL
same,MIC80,[22],4 µg/mL
same,MIC50,[23],0.5 µg/mL
same,MIC80,[23],4 µg/mL
same,MIC50,[24],0.5 µg/mL
same,MIC80,[24],4 µg/mL
same,MIC50,[25],0.5 µg/mL
same,MIC80,[25],32 µg/mL
same,MIC50,[26],0.5 µg/mL
same,MIC80,[26],4 µg/mL
same,MIC50,[27],1 µg/mL
same,MIC80,[27],4 µg/mL
same,IC50,[28],32.5 µM
same,IC50,[29],1.43 µM
same,CLint scaled,[30],134 mL/min/kg
same,Activity,[31],Non-Toxic
same,LD50 at 168 h,[32],~2000 mg/kg
same,Activity,[33],Non-Toxic
same,Activity,[34],Non-Toxic
same,Activity,[35],Non-Toxic
same,Activity,[36],Toxic
same,Activity,[37],Toxic
same,Activity,[38],Toxic
